pIC50: −log10 of the molar value.
Experiments:
Recombinant kinase JAK1 = Recombinant kinase JAK1 (Homo sapiens (Human), UniProt P23458); test: In vitro JAK kinase inhibition assay (ADP-Glo), JAK1; assay type: biochemical; settings: 30 μM ATP, peptide IRS-1, averaged
Protocol: (§1) In Vitro JAK Kinase Inhibition Assay
(§2) The effects of the compounds of the invention were analysed in vitro using kinase JAK inhibition assay described below.
(§3) Tested compounds were dissolved in 100% DMSO, and obtained stock solutions were serially diluted in the reaction buffer (50 mM Tris pH 7.5, 10 mM MgCl2, 0.25 mM EGTA, 0.1 mM Na3VO4, 0.01% Triton X-100, 2.5 mM DTT). Recombinant kinases JAK1 (ProQinase), JAK2, or JAK3 (Carna Biosciences) were diluted in the dilution buffer (50 mM Tris-HCl pH 7.5, 150 mM NaCl, 10% glycerol, 0.05% Triton X-100, 1 mM DTT) to the final concentration 3 ng/μL (JAK1), 0.1 ng/μL (JAK2), or 0.2 ng/μL (JAK3). 5 μL of obtained solution of the compounds and 5 μL of the solution of respective kinases were added to the well of a 96-well plate. To initiate interaction between tested compounds and an enzyme, the plate was incubated for 10 minutes at 25° C. in a Plate-Thermo-Shaker with orbital stirring at 400 rpm. Wells of a negative control contained all reagents as mentioned above with the exception of tested compounds and kinase, and wells of a positive controls contained all reagents as mentioned above with the exception of tested compounds. Enzymatic reaction was initiated by the addition of 15 μL of the following solution: 5× concentrated reaction buffer (50 mM Tris pH 7.5, 10 mM MgCl2, 0.25 mM EGTA, 0.1 mM Na3VO4, 0.01% Triton X-100, 2.5 mM DTT), water, 30 μM ATP and for particular kinases: JAK1—60 μM peptide IRS-1 (Enzo), JAK2 or JAK3—10 μM peptide IGF-1Rtide (Lipopharm). Then the plate was incubated for 1 hour at 25° C. in a Plate-Thermo-Shaker, with orbital stirring at 400 rpm. Detection of ADP formed in the enzymatic reaction was then performed using ADP-Glo Kinase Assay kit (Promega). For this purpose, to the well of the 96-well plate 25 μL of ADP-Glo Reagent were added, and the plate was incubated for 40 minutes at 25° C. in a Plate-Thermo-Shaker with orbital stirring at 400 rpm. Then to the well of the 96-well plate 50 μL of Kinase Detection Reagent were added and the plate was incubated for 30 minutes at 25° C. in a Plate-Thermo-Shaker with orbital stirring at 400 rpm. After incubation, luminescence intensity was measured using Victor×Light luminometer (Perkin Elmer, Inc.).
(§4) On the basis of luminescence measurement in wells containing tested compounds at various concentrations and in control wells, IC50 values were determined. These values were determined with Graph Pad software v. 5.03, by fitting points of the curve using non-linear regression method. Each compound was tested in at least 6 repetitions (6 wells) on two 96-well plates, using at least 3 wells of each control.
(§5) Averaged results of kinases JAK inhibition activity for selected compounds of the present invention are presented below in Table 1.

Recombinant kinase JAK2 = Recombinant kinase JAK2 (Homo sapiens (Human), UniProt O60674); test: In vitro JAK kinase inhibition assay (ADP-Glo), JAK2; assay type: biochemical; settings: 30 μM ATP, peptide IGF-1Rtide, averaged
Recombinant kinase JAK2, sequence (O60674 whole entry): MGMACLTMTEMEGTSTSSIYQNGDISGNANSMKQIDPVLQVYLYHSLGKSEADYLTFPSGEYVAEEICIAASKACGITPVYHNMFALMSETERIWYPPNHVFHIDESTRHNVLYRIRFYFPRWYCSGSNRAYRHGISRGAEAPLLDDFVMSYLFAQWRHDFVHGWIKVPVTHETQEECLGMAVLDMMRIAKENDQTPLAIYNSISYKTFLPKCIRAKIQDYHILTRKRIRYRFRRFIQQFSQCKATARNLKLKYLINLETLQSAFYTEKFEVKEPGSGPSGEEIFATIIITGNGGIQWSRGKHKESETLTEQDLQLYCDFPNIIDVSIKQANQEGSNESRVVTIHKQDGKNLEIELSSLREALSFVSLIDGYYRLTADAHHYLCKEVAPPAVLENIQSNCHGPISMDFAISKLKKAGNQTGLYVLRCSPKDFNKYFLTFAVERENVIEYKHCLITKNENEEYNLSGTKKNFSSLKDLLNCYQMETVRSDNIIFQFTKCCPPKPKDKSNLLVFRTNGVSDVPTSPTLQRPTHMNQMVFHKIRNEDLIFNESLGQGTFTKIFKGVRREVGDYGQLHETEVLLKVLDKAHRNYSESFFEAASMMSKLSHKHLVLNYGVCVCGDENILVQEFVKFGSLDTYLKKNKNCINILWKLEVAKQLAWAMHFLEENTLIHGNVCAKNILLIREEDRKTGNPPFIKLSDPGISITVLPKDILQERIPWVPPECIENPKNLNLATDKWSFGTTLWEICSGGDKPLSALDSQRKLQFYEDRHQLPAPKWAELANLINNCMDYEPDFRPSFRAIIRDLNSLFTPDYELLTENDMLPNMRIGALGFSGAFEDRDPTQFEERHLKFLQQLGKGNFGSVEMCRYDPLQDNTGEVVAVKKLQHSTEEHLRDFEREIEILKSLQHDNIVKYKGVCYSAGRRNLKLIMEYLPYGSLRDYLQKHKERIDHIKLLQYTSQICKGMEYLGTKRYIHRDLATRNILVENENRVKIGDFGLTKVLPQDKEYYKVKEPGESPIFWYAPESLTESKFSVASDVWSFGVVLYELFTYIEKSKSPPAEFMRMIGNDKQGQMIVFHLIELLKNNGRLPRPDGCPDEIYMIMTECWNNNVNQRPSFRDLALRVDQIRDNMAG
Protocol: as §1, §2
as §3, with “Enzymatic reaction was initiated by the addition of 15 μL of the following solution: 5× concentrated reaction buffer (50 mM Tris pH 7.5, 10 mM MgCl2, 0.25 mM EGTA, 0.1 mM Na3VO4, 0.01% Triton X-100, 2.5 mM DTT), water, 30 μM ATP and for particular kinases: JAK1—60 μM peptide IRS-1 (Enzo), JAK2 or JAK3—10 μM peptide IGF-1Rtide (Lipopharm).” left out
as §4

Recombinant kinase JAK3 = Recombinant kinase JAK3 (Homo sapiens (Human), UniProt P52333); test: In vitro JAK kinase inhibition assay (ADP-Glo), JAK3; assay type: biochemical; settings: 30 μM ATP, peptide IGF-1Rtide, averaged
Recombinant kinase JAK3, sequence (P52333 whole entry): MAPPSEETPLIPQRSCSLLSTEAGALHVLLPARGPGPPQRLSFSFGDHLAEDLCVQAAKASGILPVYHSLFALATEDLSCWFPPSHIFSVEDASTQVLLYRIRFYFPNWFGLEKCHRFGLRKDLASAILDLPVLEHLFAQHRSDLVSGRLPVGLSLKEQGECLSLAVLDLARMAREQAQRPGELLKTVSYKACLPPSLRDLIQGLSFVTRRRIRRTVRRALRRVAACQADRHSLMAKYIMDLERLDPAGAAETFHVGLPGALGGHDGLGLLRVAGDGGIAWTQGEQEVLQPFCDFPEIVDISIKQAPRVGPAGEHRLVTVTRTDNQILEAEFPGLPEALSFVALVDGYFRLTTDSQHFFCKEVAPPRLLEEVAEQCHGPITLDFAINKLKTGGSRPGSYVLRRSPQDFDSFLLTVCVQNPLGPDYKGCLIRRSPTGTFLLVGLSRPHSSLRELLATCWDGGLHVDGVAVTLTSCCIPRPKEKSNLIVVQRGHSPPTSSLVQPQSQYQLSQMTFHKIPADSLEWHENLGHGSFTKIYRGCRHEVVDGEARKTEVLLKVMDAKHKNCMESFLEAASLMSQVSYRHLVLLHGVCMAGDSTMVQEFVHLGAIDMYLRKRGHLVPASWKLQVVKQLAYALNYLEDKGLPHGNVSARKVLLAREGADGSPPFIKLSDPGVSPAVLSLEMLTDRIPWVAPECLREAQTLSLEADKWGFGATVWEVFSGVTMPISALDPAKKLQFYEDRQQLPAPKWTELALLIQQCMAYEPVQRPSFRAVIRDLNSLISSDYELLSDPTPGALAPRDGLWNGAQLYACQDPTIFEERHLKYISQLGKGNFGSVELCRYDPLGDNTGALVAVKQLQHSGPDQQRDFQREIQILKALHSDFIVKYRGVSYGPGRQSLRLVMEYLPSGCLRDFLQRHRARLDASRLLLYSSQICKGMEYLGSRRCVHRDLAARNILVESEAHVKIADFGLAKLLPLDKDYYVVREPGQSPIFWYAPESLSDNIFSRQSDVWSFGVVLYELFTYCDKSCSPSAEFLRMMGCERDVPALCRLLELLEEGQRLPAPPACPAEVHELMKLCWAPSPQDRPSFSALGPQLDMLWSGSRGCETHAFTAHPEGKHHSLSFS
Protocol: as §1, §2, §3, §4, §5

TF-1 cells [1] = test: TF-1 cells viability in vitro in the presence of IL-3 (JAK2 activation); assay type: cell-based; settings: Homo sapiens, 5 ng/mL IL-3, 72 hours, ATPlite, read-out: JAK2 IL3 (EC50, inhibition of viability of TF-1 cells)
Protocol: (§6) Assay for TF-1 Cells Viability In Vitro
(§7) The effects of the activity of the compounds of the invention were tested in vitro using cells viability assay described below.
Tested compounds were dissolved in 100% DMSO, and obtained stock solutions were serially diluted in OptiMEM medium (Reduced Serum Medium-Thermo Fisher Scientific). […] To a well of the 96-well plate 10 μL of the prepared 10× stock solutions of the compounds. Cells on 96-well plates were incubated with the compounds for 72 hours at 37° C., 5% CO2. Subsequently, viability of the cells was measured using ATPlite kit (Perkin Elmer). For this purpose, 50 μL of lysis buffer (mammalian cell lysis solution) were added to a well of the 96-well plate and the plate was incubated for 10 minutes at 25° C. in a plate thermo-shaker with orbital stirring at 600 rpm. Then to a well of the 96-well plate 50 μL of substrate (substrate solution) were added and incubated for 15 minutes at in dark, in a plate thermo-shaker with orbital stirring at 600 rpm. After incubation time, luminescence intensity in a well was measured using Victor×Light luminometer (Perkin Elmer, Inc.).
On the basis of luminescence intensity measurements in well containing tested compounds at various concentrations and in control wells EC50 values were determined. These values were determined with Graph Pad software v. […] Each compound was tested in at least 6 repetitions (6 wells) on two 96-well plates, using at least 3 wells of each control.

TF-1 cells [2] = test: TF-1 cells viability in vitro in the presence of IL-4 (JAK1/JAK3 activation); assay type: cell-based; settings: for pIC50: Homo sapiens, TF-1, 20 ng/mL IL-4, 72 hours, ATPlite, read-out: JAK1,3 IL4 (EC50, inhibition of viability of TF-1 cells); for JAK2/JAK1,3 Ratio: ratio of TF-1 viability EC50 with IL3 to EC50 with IL4
Protocol: as §6, §7
Tested compounds were dissolved in 100% DMSO, and obtained stock solutions were serially diluted in OptiMEM medium (Reduced Serum Medium-Thermo Fisher Scientific). TF-1 cells (DSMZ no.: ACC 334) in culture medium (80% RPMI 1640+20% FBS) ad in the presence of 5 ng/mL IL-3 or 20 ng/mL IL-4 were deposited on 96-well plates in the volume of 90 μl per well, 10 thousands of cells per well. To a well of the 96-well plate 10 μL of the prepared 10× stock solutions of the compounds. Cells on 96-well plates were incubated with the compounds for 72 hours at 37° C., 5% CO2. Subsequently, viability of the cells was measured using ATPlite kit (Perkin Elmer). For this purpose, 50 μL of lysis buffer (mammalian cell lysis solution) were added to a well of the 96-well plate and the plate was incubated for 10 minutes at 25° C. in a plate thermo-shaker with orbital stirring at 600 rpm. Then to a well of the 96-well plate 50 μL of substrate (substrate solution) were added and incubated for 15 minutes at in dark, in a plate thermo-shaker with orbital stirring at 600 rpm. After incubation time, luminescence intensity in a well was measured using Victor×Light luminometer (Perkin Elmer, Inc.).
as §4, with “luminescence intensity measurements” for “luminescence measurement”, “in well” for “in wells”, “control wells EC50” for “control wells, IC50”

Recombinant kinase JAK1, sequence (P23458 whole entry): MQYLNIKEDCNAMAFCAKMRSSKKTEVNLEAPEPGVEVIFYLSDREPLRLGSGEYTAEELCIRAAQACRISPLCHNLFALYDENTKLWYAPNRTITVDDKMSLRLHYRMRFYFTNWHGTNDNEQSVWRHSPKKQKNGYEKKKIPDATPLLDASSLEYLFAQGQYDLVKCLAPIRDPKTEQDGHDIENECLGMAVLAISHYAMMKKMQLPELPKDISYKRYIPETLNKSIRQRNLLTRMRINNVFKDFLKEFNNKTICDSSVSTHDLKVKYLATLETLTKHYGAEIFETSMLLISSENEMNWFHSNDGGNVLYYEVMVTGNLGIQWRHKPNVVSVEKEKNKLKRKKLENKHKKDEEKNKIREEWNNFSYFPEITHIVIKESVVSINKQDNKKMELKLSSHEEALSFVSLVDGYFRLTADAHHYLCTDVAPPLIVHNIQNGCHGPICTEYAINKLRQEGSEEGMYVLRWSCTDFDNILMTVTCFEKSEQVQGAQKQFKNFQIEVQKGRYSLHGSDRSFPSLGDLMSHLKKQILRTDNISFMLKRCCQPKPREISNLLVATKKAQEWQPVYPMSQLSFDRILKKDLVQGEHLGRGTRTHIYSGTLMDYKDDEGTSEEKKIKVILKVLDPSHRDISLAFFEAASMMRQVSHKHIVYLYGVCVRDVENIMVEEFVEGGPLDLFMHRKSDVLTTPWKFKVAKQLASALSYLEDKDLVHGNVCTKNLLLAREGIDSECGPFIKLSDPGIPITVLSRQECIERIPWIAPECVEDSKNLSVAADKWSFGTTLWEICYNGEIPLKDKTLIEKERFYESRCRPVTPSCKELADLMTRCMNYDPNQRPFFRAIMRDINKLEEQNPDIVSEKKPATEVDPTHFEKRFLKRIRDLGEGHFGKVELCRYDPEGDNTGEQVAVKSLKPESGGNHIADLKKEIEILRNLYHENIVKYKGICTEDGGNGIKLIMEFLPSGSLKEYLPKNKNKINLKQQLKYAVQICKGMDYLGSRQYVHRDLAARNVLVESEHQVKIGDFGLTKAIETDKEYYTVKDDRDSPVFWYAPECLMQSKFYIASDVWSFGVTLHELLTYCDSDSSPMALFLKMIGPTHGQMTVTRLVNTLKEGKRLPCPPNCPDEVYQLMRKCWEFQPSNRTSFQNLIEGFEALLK

Structure (SMILES)	pIC50 (Recombinant kinase JAK1)	pIC50 (Recombinant kinase JAK2)	pIC50 (Recombinant kinase JAK3)	pIC50 (TF-1 cells [1])	pIC50 (TF-1 cells [2])	JAK2/JAK1,3 Ratio (TF-1 cells [2])
COc1ccc(-c2cc3ncc(C(N)=O)c(N[C@@H]4CCN(c5ccc(C#N)nn5)CC4(C)C)n3n2)cc1 [Example 1, (R)-7-((1-(6-Cyanopyridazin-3-yl)-3,3-dimethylpiperidin-4-yl)amino)-2-(4-methoxy-phenyl)pyrazolo[1,5-a]pyrimidine-6-carboxamide]	8.74	7.72	8.92	6.08	6.46	2.4
COc1ccc(F)c(-c2cc3ncc(C(N)=O)c(N[C@@H]4CCN(c5ccc(C#N)nn5)CC4(C)C)n3n2)c1 [Example 2, (R)-7-((1-(6-Cyanopyridazin-3-yl)-3,3-dimethylpiperidin-4-yl)amino)-2-(2-fluoro-5-methoxyphenyl)pyrazolo[1,5-a]pyrimidine-6-carboxamide]	8.43	7.23	8.42	5.92	6.62	5
CCOc1ccc(-c2cc3ncc(C(N)=O)c(N[C@@H]4CCN(c5ccc(C#N)nn5)CC4(C)C)n3n2)cn1 [Example 5, (R)-7-((1-(6-Cyanopyridazin-3-yl)-3,3-dimethylpiperidin-4-yl)amino)-2-(6-ethoxy-pyridin-3-yl)pyrazolo[1,5-a]pyridimine-6-carboxamide]	8.09	7.46	8.74	–	–	–
CC1(C)CN(c2ccc(C#N)nn2)CC[C@H]1Nc1c(C(N)=O)cnc2cc(-c3ccc(N)nc3)nn12 [Example 6, (R)-2-(6-Aminopyridin-3-yl)-7-((1-(6-cyanopyridazin-3-yl)-3,3-dimethylpiperidin-4-yl)amino)pyrazolo[1,5-a]pyrimidine-6-carboxamide]	9.42	8.53	9.80	5.48	6.44	9.2

More lines, in order of rising pIC50 (Recombinant kinase JAK1), values ahead:

pIC50 (Recombinant kinase JAK1)	pIC50 (Recombinant kinase JAK2)	pIC50 (Recombinant kinase JAK3)	Structure (SMILES)	pIC50 (TF-1 cells [1])	pIC50 (TF-1 cells [2])	JAK2/JAK1,3 Ratio (TF-1 cells [2])
7.32	7.05	7.73	CCOc1ncc(-c2cc3ncc(C(N)=O)c(N[C@@H]4CCN(c5ccc(C#N)nn5)CC4(C)C)n3n2)cn1 [Example 9, (R)-7-((1-(6-Cyanopyridazin-3-yl)-3,3-dimethylpiperidin-4-yl)amino)-2-(2-ethoxy-pyrimidin-5-yl)pyrazolo[1,5-a]pyrimidine-6-carboxamide]	–	–	–
8.07	7.57	8.65	COc1ncc(-c2cc3ncc(C(N)=O)c(N[C@@H]4CCN(c5ccc(C#N)nn5)CC4(C)C)n3n2)cn1 [Example 8, (R)-7-((1-(6-Cyanopyridazin-3-yl)-3,3-dimethylpiperidin-4-yl)amino)-2-(2-methoxy-pyrimidin-5-yl)pyrazolo[1,5-a]pyrimidine-6-carboxamide]	5.69	6.69	10
8.35	7.51	8.80	CC1(C)CN(c2ccc(C#N)nn2)CC[C@H]1Nc1c(C(N)=O)cnc2cc(-c3cccnc3)nn12 [Example 3, (R)-7-((1-(6-Cyanopyridazin-3-yl)-3,3-dimethylpiperidin-4-yl)amino)-2-(pyridin-3-yl)pyrazolo[1,5-a]pyrimidine-6-carboxamide]	–	–	–
8.63	7.89	9.22	CC1(C)CN(c2ccc(C#N)nn2)CC[C@H]1Nc1c(C(N)=O)cnc2cc(-c3ccc(F)nc3)nn12 [Example 10, (R)-7-((1-(6-Cyanopyridazin-3-yl)-3,3-dimethylpiperidin-4-yl)amino)-2-(6-fluoro-pyridin-3-yl)pyrazolo[1,5-a]pyrimidine-6-carboxamide]	5.89	6.95	11.5
